Assay results from BindingDB's records for doi:10.1016/j.bmc.2013.04.067 (Chinese Academy of Sciences, 2013).

Experiment: Inhibition of p-gp in human KB/VCR cells assessed as potentiation of 100 nM docetaxel-induced cytotoxicity after 72 hrs by MTT assay

Structure (SMILES)	EC50
CC1(C)[C@@H](O)CC[C@]2(C)[C@H]3C[C@@H](O)[C@@H]4[C@@H]([C@@](C)(O)CCCNCCc5ccccc5)CC[C@@]4(C)[C@]3(C)CC[C@@H]12	1310 nM
CC1(C)[C@@H](O)CC[C@]2(C)[C@H]3C[C@@H](O)[C@@H]4[C@@H]([C@@](C)(O)CCCNCc5ccccc5)CC[C@@]4(C)[C@]3(C)CC[C@@H]12	1370 nM
